Measured values: US20240254138A1, “TRICYCLIC PYRIMIDINES AS CYCLIN-DEPENDENT KINASE 7 (CDK7) INHIBITORS” (JANSSEN PHARMACEUTICA NV, priority 2021, published 2024)

Tests used:
[1] = test system: RNA Polymerase II Serine 5 phosphorylation in A549 cells overexpressing CDK7-mutant (C312S); assay: Imaging-based cellular RNA PolII Ser5 phosphorylation assay in A549 cells overexpressing CDK7-mutant (C312S); type: cell-based, human; conditions: RNA PolII Ser5 phosphorylation, averaged over all measurements; for IC50: Homo sapiens, A549, A549 cells overexpressing CDK7-mutant (C312S), read-out: CDK7_A549 mutant hCDK7(pIC50) (converted); for CDK7_A549 mutant hCDK7(pIC50): A549 cells overexpressing CDK7-mutant (C312S)
Excerpt: (§1) To evaluate inhibition of CDK7 kinase activity, a 384-well automated imaging assay was used. This assay detects Serine 5 phosphorylation on a unique heptapeptide sequence in the C-terminal domain of Rpb1 subunit of RNA polymerase II, the downstream substrate of CDK7. This heptapeptide sequence is repeated up to 52 times in the CTD of Rpb1.
(§2) A549 adenocarcinoma human alveolar basal epithelial cells (ATCC, CCL-185), rabbit Phospho-Rpb1 CTD (Ser5) antibody (D9N51 (Cell Signaling Technology)), DMEM (Sigma), Fetal Bovine Serum (Biowest), L-glutamine (Sigma), Penicillin/Streptomycin (Life Technologies), Sodium Pyruvate (Sigma), Hepes (Sigma), poly-D-lysine coated μclear 384 black plates (Greiner), formaldehyde (PolySciences), D-PBS (Sigma), Methanol (Sigma), Alexa Fluor 488 goat anti rabbit IgG secondary antibody (Life Technologies), HCS CellMask™ Deep Red stain (Life Technologies), Hoechst 33258 (Invitrogen).
(§3) RNA Polymerase II Serine 5 phosphorylation was detected using a specific rabbit Phospho-Rpb1 CTD (Ser5) antibody. A549 adenocarcinoma human alveolar basal epithelial cells were seeded in 20 μl medium (DMEM supplemented with 1% Fetal Bovine Serum (heat inactivated 30′ 56° C.), 2 mM L-glutamine, 50 U/ml penicillin 50 μg/ml streptomycin, 1 mM sodium pyruvate and 50 mM hepes) at 1000 cells/well and cultured in poly-D-lysine coated μclear 384 black plates for 20 hours at 37° C. and 5% CO2.
(§4) After incubation cells were challenged with compound for 3 hours at 37° C. and 5% CO2. DMSO was used as high control and as low control 10 μM of the following reference compound was used:
(§5) 40 nl of test compounds and controls were spotted in cell plates using Echo Liquid Handler (Echo 550, Labcyte). Incubation was followed by 20 minutes fixation with 20 μl 10% formaldehyde at room temperature. Medium/formaldehyde solution was removed, plates were washed 3 times with 30 μl D-PBS (w/o Ca^2+ and Ma^2+) and permeabilization was done by adding 20 μl ice cold methanol for 20 minutes. Cells were washed again 3 times with 30 μl D-PBS and 20 μl blocking buffer (25 ml fetal bovine serum in 500 ml D-PBS) was added for 1 hour.
(§6) After removing blocking buffer 20 μl 1/1000 primary antibody rabbit Phospho-Rpb1 CTD (Ser5) antibody was added which binds to the phosphorylated Serine5 of the heptapeptide sequences in the CTD of Rpb1. Primary antibody was removed, and plates were washed 3 times with 30 μl D-PBS followed by addition of 20 μl 1/2000 Alexa Fluor 488 goat anti rabbit IgG secondary antibody for final detection of Phospho-Rpb1 CTD (Ser5) together with 1/5000 HCS CellMask™ Deep Red stain for membrane staining and 1/5000 Hoechst 33258 for nucleus staining. Last, plates were washed 2 times with 30 μl D-PBS and wells were filled with 40 μL D-PBS, plates were sealed (Thermowell sealing tape) and stored at 4° C. until reading. Plates were read with Opera Phenix (Perkin Elmer) with 10× air objective. Data were calculated and analyzed in Phaedra.
(§7) IC50 values were calculated using the following formula: […]
(§8) Average value of all HC's and all LC's are used for normalizations.
(§9) A best-fit curve is fitted by a minimum sum of squares method to the plot of % Control vs. compound concentration. From this an IC50 value can be obtained. An estimate of the slope of the plot in terms of the Hill coefficient is also obtained.
In parallel this assay was performed in A549 cells overexpressing CDK7-mutant (C312S) to evaluate the effect of the covalent bond on potency and to screen for potential off-target effects. Mutation of Cysteine to Serine (C312S), a less nucleophilic amino acid, prevents CDK7 inhibitors from covalently binding to CDK7 and from inhibiting CDK7 activity in an irreversible manner. A stably transduced A549 cell pool was generated that overexpresses CDK7 mutant (C312S), but also expresses endogenous CDK7-WT. Covalent binders targeting the cysteine at position 312 will show a shift in potency in A549 cells overexpressing mutant C312S CDK7.

[2] = test system: RNA Polymerase II Serine 5 phosphorylation (Rpb1 CTD, downstream substrate of CDK7) in A549 cells; assay: Imaging-based cellular RNA PolII Ser5 phosphorylation assay in A549 cells; type: cell-based, human; conditions: wild-type CDK7, RNA PolII Ser5 phosphorylation, averaged over all measurements; for IC50: Homo sapiens, A549, A549 cells, read-out: CDK7_A549 Wild-type CDK7 (pIC50) (converted); for CDK7_A549 Wild-type CDK7 (pIC50): A549 cells
Excerpt: as §1, §2, §3, §4, §5, §6, §7, §8, §9

Row | IC50 [1] | IC50 [2] | CDK7_A549 mutant hCDK7(pIC50) [1] | CDK7_A549 Wild-type CDK7 (pIC50) [2] | SMILES
1 | > 10 µM | 0.102 µM | – | – | C=CC(=O)N1CC[C@H](N2CCC(c3cc4c(c(C)n3)OCc3c(-c5cnn(C)c5)ccnc3N4)CC2)C1 (single isomer, unassigned) [Compound 293]
2 | – | – | <5 | 7.24 | C=CC(=O)N1CC[C@@H](N2CCC(c3cc4c(c(C)n3)OCc3c(N5CCOCC5)ccnc3N4)CC2)C1 (single isomer, unassigned) [Compound 294]
3 | > 10 µM | ~10 µM | – | – | C/C=C/C(=O)N1CC[C@@H](N2CCC(c3cc4c(c(C)n3)OCc3c(-c5cnn(C)c5)ccnc3N4)CC2)C1 (single isomer, unassigned) [Compound 302]
4 | > 10 µM | > 10 µM | – | – | C/C=C/C(=O)N1CC[C@H](N2CCC(c3cc4c(c(C)n3)OCc3c(-c5cnn(C)c5)ccnc3N4)CC2)C1 (single isomer, unassigned) [Compound 307]
5 | > 10 µM | > 10 µM | – | – | C=C(C)C(=O)N1CC[C@H](N2CCC(c3cc4c(c(C)n3)OCc3c(-c5cnn(C)c5)ccnc3N4)CC2)C1 (single isomer, unassigned) [Compound 312]
6 | > 10 µM | 7.76 µM | – | – | CC#CC(=O)N1CC(N2CC(c3cc4c(c(C)n3)O[C@@H](C)c3c(N5CCOCC5)ccnc3N4)C2)C1 (single isomer, unassigned) [Compound 356]
7 | > 10 µM | 0.676 µM | – | – | CC#CC(=O)N1CCC(N2CC(c3cc4c(c(C)n3)O[C@@H](C)c3c(N5CCOCC5)ccnc3N4)C2)CC1 (single isomer, unassigned) [Compound 360]
8 | > 10 µM | 2.19 µM | – | – | CC#CC(=O)N1CC(N2CCC(c3cc4c(c(C)n3)O[C@@H](C)c3c(N5CCOCC5)ccnc3N4)CC2)C1 (single isomer, unassigned) [Compound 371]
9 | > 10 µM | 4.57 µM | – | – | CC#CC(=O)N1CC(n2cc(-c3cc4c(c(C)n3)O[C@H](C)c3c(N5CCOCC5)ccnc3N4)cn2)C1 (single isomer, unassigned) [Compound 434]
10 | – | – | <5 | <5 | CC#CC(=O)N1CC(N2CC(c3cc4c(c(C)n3)O[C@@H](C)c3c(N5CCOCC5)ccnc3N4)C2)C1 (single isomer, unassigned) [Compound 441]
11 | > 10 µM | 0.794 µM | – | – | CC#CC(=O)N1CC(N2CC[C@@H](c3cc4c(c(C)n3)OCc3c(N5CCOCC5)ccnc3N4)N(C)CC2)C1 (single isomer, unassigned) [Compound 446]
12 | 8.32 µM | 0.209 µM | – | – | CC#CC(=O)N1CC(N2CC[C@H](c3cc4c(c(C)n3)OCc3c(N5CCOCC5)ccnc3N4)N(C)CC2)C1 (single isomer, unassigned) [Compound 448]
13 | > 10 µM | 1.78 µM | – | – | CC#CC(=O)N1CC(n2cc(-c3cc(C#N)c4c(c3)Nc3nccc(N5CCOCC5)c3[C@@H](C)O4)cn2)C1 (single isomer, unassigned) [Compound 450]
14 | > 10 µM | 0.575 µM | – | – | C=CC(=O)N1CC[C@@H](N2CC(c3cc4c(c(C#N)n3)OCc3c(N5CCOCC5)ccnc3N4)C2)C1 (single isomer, unassigned) [Compound 474]
15 | 9.55 µM | 0.126 µM | – | – | C#Cc1cc(C2CN([C@H]3CCN(C(=O)C=C)C3)C2)cc2c1OCc1c(-c3cnn(C)c3)ccnc1N2 (single isomer, unassigned) [Compound 492]
16 | > 10 µM | – | – | 6.36 | CC#CC(=O)N1CC[C@@H](N2CC(c3cc4c(c(C)n3)O[C@H](C)c3c(N5CCOCC5)ccnc3N4)C2)C1 (single isomer, unassigned) [Compound 513]

Continued, compound first:

Row | SMILES | IC50 [1] | IC50 [2] | CDK7_A549 mutant hCDK7(pIC50) [1] | CDK7_A549 Wild-type CDK7 (pIC50) [2]
17 | C=C(C)C(=O)N1CC[C@@H](N2CCC(c3cc4c(c(C)n3)OCc3c(-c5cnn(C)c5)ccnc3N4)CC2)C1 (single isomer, unassigned) [Compound 311] | > 10 µM | > 10 µM | – | –
18 | C=CC(=O)N1CC[C@@H](N2CC(c3cc4c(c(C)n3)O[C@@H](C)c3c(C5CCOCC5)ccnc3N4)C2)C1 (single isomer, unassigned) [Compound 334] | > 10 µM | 5.25 µM | – | –
19 | C=CC(=O)N1CC[C@H](N2CC(c3cc4c(c(C)n3)O[C@@H](C)c3c(C5CCOCC5)ccnc3N4)C2)C1 (single isomer, unassigned) [Compound 337] | > 10 µM | > 5.01 µM | – | –
20 | CC#CC(=O)N1CCC(N2CC(c3cc4c(c(C)n3)O[C@H](C)c3c(N5CCOCC5)ccnc3N4)C2)CC1 (single isomer, unassigned) [Compound 358] | 6.17 µM | 0.0398 µM | – | –
21 | CC#CC(=O)N1CC(N2CC[C@H](c3cc4c(c(C)n3)O[C@@H](C)c3c(N5CCOCC5)ccnc3N4)C2)C1 (single isomer, unassigned) [Compound 395] | > 10 µM | > 10 µM | – | –
22 | CC#CC(=O)N1CC(N2CC[C@H](c3cc4c(c(C)n3)O[C@H](C)c3c(N5CCOCC5)ccnc3N4)C2)C1 (single isomer, unassigned) [Compound 397] | > 10 µM | > 10 µM | – | –
23 | CC#CC(=O)N1CC(N2CCC(c3cc4c(c(C)n3)O[C@H](C)c3c(C5CCOCC5)ccnc3N4)CC2)C1 (single isomer, unassigned) [Compound 405] | > 10 µM | 0.0891 µM | – | –
24 | C=CC(=O)N1CCC(N2CC(c3cc4c(c(C)n3)O[C@H](C)c3c(N5CCOCC5)ccnc3N4)C2)CC1 (single isomer, unassigned) [Compound 423] | 5.89 µM | 0.0589 µM | – | –
25 | C=CC(=O)N1CCC(N2CC(c3cc4c(c(C)n3)O[C@@H](C)c3c(N5CCOCC5)ccnc3N4)C2)CC1 (single isomer, unassigned) [Compound 430] | > 10 µM | 0.933 µM | – | –
26 | CC#CC(=O)N1CCC(N2CC[C@H](c3cc4c(c(C)n3)OCc3c(N5CCOCC5)ccnc3N4)C2)CC1 (single isomer, unassigned) [Compound 438] | 3.09 µM | 0.191 µM | – | –
27 | C#Cc1cc(C2CN([C@@H]3CCN(C(=O)C=C)C3)C2)cc2c1OCc1c(-c3cnn(C)c3)ccnc1N2 (single isomer, unassigned) [Compound 473] | > 10 µM | 0.166 µM | – | –
28 | CC#CC(=O)N1CC(N2CCC(c3cc4c(c(C#N)n3)O[C@H](C)c3c(N5CCOCC5)ccnc3N4)CC2)C1 (single isomer, unassigned) [Compound 481] | > 10 µM | 3.02 µM | – | –
29 | CC#CC(=O)N1CC(N2CCC(c3cc4c(c(C#N)n3)O[C@@H](C)c3c(N5CCOCC5)ccnc3N4)CC2)C1 (single isomer, unassigned) [Compound 485] | > 10 µM | 0.12 µM | – | –
30 | CC#CC(=O)N1CC[C@H](N2CC(c3cc4c(c(C)n3)O[C@@H](C)c3c(N5CCOCC5)ccnc3N4)C2)C1 (single isomer, unassigned) [Compound 512] | > 10 µM | – | – | 7.56
31 | CC#CC(=O)N1CC[C@@H](N2CC(c3cc4c(c(C)n3)O[C@@H](C)c3c(N5CCOCC5)ccnc3N4)C2)C1 (single isomer, unassigned) [Compound 515] | 8.91 µM | ~0.0115 µM | – | –
